The nature of this data set: apparent (effective) diffusion coefficient from internal standard-based calibration of the dispersion model. The format is physicochemical. Conditions: coiled tube, 50 μL/min, 25° C.; sucrose internal standard and Equation 1 calibration by Mr. The method, then:
In one example, the rapid dispersion injection method is performed in a biosensor comprising a flow channel conduit that is in fluid connection with a flow cell conduit downstream from the analyte sample injection point. The flow channel conduit is tightly coiled around a vertically-oriented support and is preferably filled with a carrier fluid free of analyte prior to the analyte sample injection. Although it is preferred to use a vertically-oriented coil, it is not essential and other configurations are possible. The flow cell conduit houses at least two sensing regions, a first sensing region having one or more ligands immobilized on its surface and a second sensing region free of ligand. A first fluid sample comprising a reference material (e.g. sucrose) of sufficient molecular weight and concentration to elicit a bulk refractive index response is injected into the flow channel conduit under conditions sufficient to cause the reference material to undergo a dispersion event in route to the flow cell thereby producing a concentration gradient. […] The bulk refractive index response of the reference material is recorded at the second sensing surface as the first fluid sample flows continuously through the flow cell thereby generating a standard curve. The standard curve provides an internal standard which acts as a witness to the particular injection conditions of that assay. The standard curve is then fitted to the dispersion model (Equations 2 and 3 described below) to calculate a reference diffusion coefficient. […]
In brief, the universal calibration function was determined by measuring the bulk refractive index response of eight different compounds of varying molecular (Mr) under twenty-seven experimental dispersion conditions. […] An apparent diffusion coefficient (D′) was obtained for the eight compounds by fitting the dispersion model defined by Equations 2 and 3 (set forth below) to each measured bulk refractive index response curve. […]

Results on 3 compounds are retold here after patent US9990464B1, “Label-free biomolecular interaction analysis using a rapid analyte dispersion injection method” (SENSIQ TECHNOLOGIES, INC., priority 2012, dated 2018).

Regarding `NS(=O)(=O)c1cc(C(=O)O)c(NCc2ccco2)cc1Cl` [Furosemide, furosemide], the “Dapp (apparent / effective diffusion coefficient)” value is 8.29E−10 m^2s^−1.
As for `NS(=O)(=O)c1ccc(C(=O)O)cc1` [CBS, 4-carboxybenzenesulfonamide], the figure is 1.01E−09 m^2s^−1; as for `CC(=O)Nc1nnc(S(N)(=O)=O)s1` [Acetazolamide, acetazolamide], 9.67E−10 m^2s^−1.
